Data reported in patent US20120149708A1, “MODULATORS OF VIRAL TRANSCRIPTION, AND METHODS AND COMPOSITIONS THEREWITH” (George Mason University, priority 2010, published 2012).

Columns and labels:
HIV-1 = experiment: Viral inhibition (HIV-1); type: cell-based; conditions: versus Cyc202
[1] = tested on: infected ACH2, J1.1, OM10.1, U1 cells; experiment: MTT assay, infected cells; type: cell-based; conditions: 50 nm and 10 μM
Protocol: (§1) FIGS. 1 and 2 show screening results of CR8 derivatives on Tat-dependent transcription HIV-1 LTR. […] TZM-bl cells were transfected with 1 ug of Tat and treated the next day with DMSO, or the indicated CR8 derivative compounds at 50 nm. 48 hrs-post drug treatment, luciferase activity of the firefly luciferase was measured with the BrightGlo Luciferase Assay and luminescence was read from a 96 well plate on an EG&G Berthold luminometer. Assays were performed in triplicate, average and standard deviations are shown.
(§2) Quantitative MTT assays were performed (FIG. 2), to further validate the cell growth inhibitory activity of certain Formula I compounds. In this study, cultured, infected ACH2, J1.1, OM10.1, U1 and uninfected CEM, Jurkat T-cells, and U937 cells were brought in contact with Formula I compounds CR8, MRT-033, and BJFP1154 (CR8#13). Cell growth inhibition study was performed at two different concentrations of the inventive compounds, a low concentration of 50 nm, and high concentration of 10 μM.

[2] = tested on: ACH2 cells (HIV-1 infected); experiment: Cell viability by trypan blue exclusion, 48 hours; type: cell-based; conditions: HIV-1 infected
Protocol: (§3) TZM-bl cell lines were grown in Dulbecco's modified Eagle's medium supplemented with fetal bovine serum (FBS) (10%, v/v), 2 mM L-glutamine, and antibiotics (penicillin 100 U/ml, streptomycin […]) (cDMEM). HCT116 WT and HCT116 Dicer−/−cell lines were grown in McCoy's medium supplemented with FBS (10%, v/v), 2mM L-glutamine, and antibiotics (penicillin 100 U/ml, streptomycin […]). CEM, ACH2, Jurkat and U937 cells were grown in RPMI 1640 supplemented with FBS, L-glutamine, and antibiotics (penicillin 100 U/ml, streptomycin […]). All cell lines were maintained at 37° C. in 5% (v/v) CO2. […]
(§4) In brief, the inhibition studies were carried out as follows. HIV-1 infected cells ACH2, J1.1, OM10.1, U1 and uninfected CEM, Jurkat T-cells, and U937 were cultured in media. The appropriate inhibitor was added at a concentration of 10 μM. Cells were treated for 48 hours and cell viability was determined using trypan blue exclusion method. Results of such a screen for 19 inhibitors is shown in Table 1 where percent dead cells are indicated each drug tested.
(§5) Again HIV-1 infected and uninfected cells were treated with eighteen Formula I compounds at a drug concentration of 50 nm. Forty-eight hours after treatment, cytotoxicity was determined by trypan blue dye exclusion. Percent inhibition was calculated after obtaining the cell density for each well of the tissue culture plate at the end of 48 hrs.

[3] = tested on: Jurkat T-cells (uninfected); experiment: Cell viability by trypan blue exclusion, 48 hours; type: cell-based
Protocol: as §3, §4, §5

CEM cells (uninfected) = experiment: Cell viability by trypan blue exclusion, 48 hours; type: cell-based
Protocol: (§6) TZM-bl cell lines were grown in Dulbecco's modified Eagle's medium supplemented with fetal bovine serum (FBS) (10%, v/v), 2 mM L-glutamine, and antibiotics (penicillin 100 U/ml, streptomycin […]) (cDMEM). HCT116 WT and HCT116 Dicer−/−cell lines were grown in McCoy's medium supplemented with FBS (10%, v/v), 2mM L-glutamine, and antibiotics (penicillin 100 U/ml, streptomycin […]). CEM, ACH2, Jurkat and U937 cells were grown in RPMI 1640 supplemented with FBS, L-glutamine, and antibiotics (penicillin 100 U/ml, streptomycin […]). All cell lines were maintained at 37° C. in 5% (v/v) CO2.
(§7) ACH2 cells are infected with HIV-1; TZM-bl cells contain a stably-integrated HIV-1 LTR-Luciferase reporter; CEM, Jurkat, and U937 cells are uninfected. Transfections were carried out using Attractene (Qiagen) lipid reagent. Cells were cultured to confluence and pelleted at 4° C. for 15 min at 3,000 rpm. The cell pellets were washed twice with 25 ml of phosphate-buffered saline (PBS) with Ca2+ and Mg2+ (Quality Biological) and centrifuged once more. Cell pellets were resuspended in lysis buffer (50 mM Tris-HCl, pH 7.5, 120 mM NaCl, 5 mM EDTA, 0.5%, v/v, NP-40, 50 mM NaF, 0.2 mM Na3VO4, 1 mM DTT, one complete protease cocktail tablet/50 ml (Roche) and incubated on ice for 20 min, with gentle vortexing every 5 min. Cell lysates were transferred to eppendorf tubes and were centrifuged at 10,000 rpm for 10 min. Supernatants were transferred to a fresh tube where protein concentrations were determined using Bio-Rad protein assay (Bio-Rad, Hercules, Calif.).
as §4, §5

U937 cells (uninfected) = experiment: Cell viability by trypan blue exclusion, 48 hours; type: cell-based
Protocol: as §6, §7, §4, §5

[4] = tested on: uninfected CEM, Jurkat T-cells, and U937 cells; experiment: MTT assay, uninfected cells; type: cell-based
Protocol: as §1, §2

3′TAR and 5′TAR microRNA = experiment: Poly-A RT-PCR of TAR microRNA in ACH2 cells; type: cell-based, HIV-1; conditions: CR8#13 100 nm, 48 hrs
Protocol: RNA was extracted 48 hrs-post drug treatment. 500 ng of RNA from the microRNA-enriched fraction was used to generate cDNA using the Quantimir kit (SBI). RT reactions are performed followed by PCR in which a universal reverse primer is provided by the manufacturer. Specific microRNA forward primers are identical in sequence to the microRNA of interest. PCR products corresponding to the amplified microRNAs were resolved in a 3.5% (w/v) agarose gel. The PCR products are at around 67 bp as compared with the Fermentas 1 kb DNA Plus Ladder. Increased amounts of 3′ and 5′ TAR microRNA were observed post drug treatment.
For poly-A RT-PCR detection of microRNAs, 500 ng of RNA from the microRNA-enriched fraction was used to generate cDNA using the Quantimir kit (SBI) according to the manufacturer's protocol. Briefly, small RNA species are poly-adenylated and then reverse transcription reactions are performed with a company-provided RT primer. For PCR, a universal reverse primer is provided by the manufacturer. Specific microRNA forward primers are identical in sequence to the microRNA of interest. PCR products corresponding to the amplified microRNAs were separated in a 3.5% (w/v) agarose gel and quantified using the Kodak 1D software. […]

SMILES	potency relative to Cyc202 (viral inhibition) (HIV-1)	cell killing of infected cells (MTT) [1]	inhibition at 10 µM ([2]; Human immunodeficiency virus 1, ACH-2, 48 h, 10 μM, 48 hours, read-out: % Inhibition (percent dead cells) ACH2) [%]	inhibition at 10 µM ([3]; Homo sapiens, Jurkat, 10 μM, 48 hours, read-out: % Inhibition (percent dead cells) Jurkat) [%]	inhibition at 10 µM (CEM cells (uninfected); Homo sapiens, CCRF-CEM, 48 h, 10 μM, 48 hours, read-out: % Inhibition (percent dead cells) CEM) [%]	inhibition at 10 µM (U937 cells (uninfected); Homo sapiens, U-937, 10 μM, 48 hours, read-out: % Inhibition (percent dead cells) U937) [%]	cell inhibition of uninfected cells (MTT) ([4]; 50 nm and 10 μM)	Inhibition Percentage ACH2 ([2]; 50 nM, 48 hrs)	Inhibition Percentage Jurkat ([3]; 50 nM, 48 hrs)	Inhibition Percentage CEM (CEM cells (uninfected); 50 nM, 48 hrs)	Inhibition Percentage U937 (U937 cells (uninfected); 50 nM, 48 hrs)	death of uninfected cells (MTT) ([4]; high concentration of 10 μM)	5′TAR microRNA levels (3′TAR and 5′TAR microRNA)
CC[C@@H](CO)Nc1nc(NCc2ccc(-c3ccccn3)cc2)c2ncn(C(C)C)c2n1 [CR8]	roughly 25 times	significant cell killing of infected cells over uninfected cells	90	50	25	50	some cell inhibition activity of uninfected cells						
CC(C)c1cnn2c(NCc3ccc(-c4ccccn4)cc3)nc(NC[C@H](O)CO)nc12.O=C(O)/C=C/C(=O)O [BJFP1154]								− (1-5%)	− (1-5%)	− (1-5%)	− (1-5%)	marginal, if any death of uninfected cells	increase in the 5′TAR microRNA levels
